Experimental findings from the ASAP Discovery antiviral challenge data (2025) are described below.

In general, Papp refers to the rate of passage across a membrane or cell layer, normalised by area and donor concentration. Low readings indicate slow passage, high ones fast passage. Broadly, the microsomal CLint is the capacity of the preparation to metabolise the compound, expressed as a volume cleared per time. Low readings indicate slow turnover, high ones rapid turnover. Broadly, the kinetic solubility is solubility judged after dilution from a stock solution rather than from solid. Broadly, the logD is the decadic logarithm of the distribution of all forms, ionised or not, between an organic phase and buffer at a given pH. Low readings indicate a more hydrophilic compound, high ones a more lipophilic compound.

SMILES strings stand for the structures. Converted amounts (≈) assume the structure as drawn. “And” between values parts separate entries of the source, which are not always exact repeats. Equal values may be shown once.

The conditions of series [1]: mdck_mdr1.
The conditions of series [2]: human; liver_microsomes.
The conditions of series [3]: mouse; liver_microsomes.
Test in series [4]: not given
This is another data set of the same source.

For `CC(C)[C@H](Nc1ncnc2[nH]ccc12)c1ccc2c(c1)S(=O)(=O)CCO2` (racemic), the solubility (kinetic) came to 372 µM (≈ 139 µg/mL). In series [1], this molecule yielded a Papp of 4.4 ×10⁻⁶ cm/s. The same molecule yielded a microsomal CLint in series [2] of 18 µL/min/mg. Further, the microsomal CLint in series [3] worked out at 69 µL/min/mg. The same molecule displayed a logD in series [4] of 2.6.

`CC(C)[C@H](Nc1ncnc2[nH]c(-c3cnn(C)c3C#N)cc12)c1ccc2c(n1)NC(=O)CO2` (racemic) had a solubility (kinetic) of 29 µM (≈ 12.9 µg/mL). Also, the Papp in series [1] is 9.83 ×10⁻⁶ cm/s. In series [2], this molecule returned a microsomal CLint of 70 µL/min/mg. Also, the microsomal CLint in series [3] turned out to be 145 µL/min/mg. Besides, the logD in series [4] came to 3.7.

In the case of `CNC(=O)c1c[nH]c2ncnc(N[C@H](c3ccc4c(c3)OCCO4)C(C)C)c12` (racemic), the kinetic solubility was 319 µM (≈ 122 µg/mL). Also, the Papp in series [1] turned out to be 16.2 ×10⁻⁶ cm/s. The molecule also showed a microsomal CLint in series [2] of 79 µL/min/mg. Moreover, the microsomal CLint in series [3] worked out at 88 µL/min/mg. Moreover, the log distribution coefficient (logD) in series [4] was 3.6.

For `C[C@H](C(=O)O)[C@H](NC(=O)c1ncnc2[nH]ccc12)c1ccc(Br)cc1` (mixture of isomers), the kinetic solubility came out at 386 µM. This molecule gave a Papp in series [1] of 1.4 ×10⁻⁶ cm/s. Besides, the microsomal CLint in series [2] came out at 5 µL/min/mg. This molecule also gave a microsomal CLint in series [3] of 4 µL/min/mg. The logD in series [4] was 0.5.

Regarding `Cc1nn(C)cc1-c1cc2c(N[C@H](c3ccc4c(c3)S(=O)(=O)CCC4)C(C)C)ncnc2[nH]1` (single isomer, unassigned), the kinetic solubility was 65 µM and 63 µM. For the same molecule, the Papp in series [1] is 4.36 ×10⁻⁶ cm/s and 3.69 ×10⁻⁶ cm/s. Further, the microsomal CLint in series [2] is 273 µL/min/mg and 251 µL/min/mg. Also, the microsomal CLint in series [3] was 202 µL/min/mg and 390 µL/min/mg. Besides, the logD in series [4] was 3.1 and 3.4.

On to `NCc1cccc(NC(=O)[C@@H](NC(=O)OCc2ccccc2)c2ccc(OCc3ccccc3)cc2)c1`, for which the kinetic solubility came to 23 µM (≈ 11.4 µg/mL). The same molecule yielded a Papp in series [1] of 1.53 ×10⁻⁶ cm/s. Moreover, in series [2], the microsomal CLint was found to be 11 µL/min/mg. The molecule also returned a microsomal CLint in series [3] of 1 µL/min/mg. The molecule also showed a logD in series [4] of 3.2.

As for `CC(C)[C@H](Nc1ncnc2[nH]c(-c3cnn(CC(N)=O)c3)cc12)c1ccc2c(c1)S(=O)(=O)CCC2` (single isomer, unassigned), the kinetic solubility is 338 µM and 335 µM. Also, the Papp in series [1] is 1.98 ×10⁻⁶ cm/s and 0.719 ×10⁻⁶ cm/s. The microsomal CLint in series [2] was 240 µL/min/mg and 115 µL/min/mg. Also, the microsomal CLint in series [3] is 39 µL/min/mg and 96 µL/min/mg. Further, the logD in series [4] is 2.1 and 2.

In turn, `O=C(/C=C/c1ccccc1)C(=O)N1CCN(CCc2ccccc2)CC1` returned a solubility (kinetic) of 239 µM (≈ 83.3 µg/mL). This molecule returned a Papp in series [1] of 3 ×10⁻⁶ cm/s. The microsomal CLint in series [2] is 167 µL/min/mg. For the same molecule, the microsomal CLint in series [3] is 181 µL/min/mg. This molecule also gave a logD in series [4] of 3.3.

On to `CC(C)[C@H](Nc1ncnc2[nH]c(-c3ccc4cncn4c3)cc12)c1ccc2c(c1)S(=O)(=O)CCC2` (racemic), for which the solubility (kinetic) amounted to 14 µM (≈ 6.81 µg/mL). In series [1], this molecule gave a Papp of 0.56 ×10⁻⁶ cm/s. Further, the microsomal CLint in series [2] was determined as 210 µL/min/mg. Further, the microsomal CLint in series [3] came to 170 µL/min/mg. The logD in series [4] was 4.

Turning to `CNCc1cc(-c2cc3c(N[C@H](c4ccc5c(c4)S(=O)(=O)CCC5)C(C)C)ncnc3[nH]2)co1` (racemic), the solubility (kinetic) is 321 µM (≈ 154 µg/mL). In series [1], this molecule had a Papp of 1.61 ×10⁻⁶ cm/s. In series [2], this molecule showed a microsomal CLint of 57 µL/min/mg. The intrinsic clearance (microsomal CLint) in series [3] worked out at 52 µL/min/mg. Also, in series [4], the logD came to 2.1.

In turn, `CC(C)(C)[C@H](Nc1ncnc2[nH]c(-c3cnn(CC(N)=O)c3)cc12)c1ccc2c(n1)OCCO2` (racemic) displayed a kinetic solubility of 48 µM (≈ 22.2 µg/mL). This molecule also returned a Papp in series [1] of 0.822 ×10⁻⁶ cm/s. The molecule also registered a microsomal CLint in series [2] of 36 µL/min/mg. In addition, the microsomal CLint in series [3] stood at 31 µL/min/mg. The molecule further displayed a logD in series [4] of 2.7.

Molecule `CCNC(=O)c1cc2c(N[C@H](c3ccc4c(c3)S(=O)(=O)NCC4)C(C)C)ncnc2[nH]1` (racemic) showed a solubility (kinetic) of 344 µM (≈ 152 µg/mL). The same molecule returned a Papp in series [1] of 1.96 ×10⁻⁶ cm/s. In series [2], this molecule yielded a microsomal CLint of 85 µL/min/mg. The same molecule came in with a microsomal CLint in series [3] of 45 µL/min/mg. The logD in series [4] turned out to be 2.6.

In turn, `CC(C)[C@H](Nc1ncnc2[nH]c(-c3cnn(C)c3)cc12)c1ccc2c(c1)S(=O)(=O)CCC2` (single isomer, unassigned) had a solubility (kinetic) of 111 µM (≈ 50 µg/mL). The Papp in series [1] is 1.18 ×10⁻⁶ cm/s and 1.5 ×10⁻⁶ cm/s. For the same molecule, in series [2], the microsomal CLint is 169 µL/min/mg and 405 µL/min/mg. Further, the microsomal CLint in series [3] was 255 µL/min/mg and 140 µL/min/mg. Besides, in series [4], the logD is 2.9 and 3.2.

With `CC(C)(C)[C@H](Nc1ncnc2[nH]c(-c3cnn(CC(N)=O)c3)cc12)c1ccc2c(n1)OCCO2` (single isomer, unassigned), the kinetic solubility was 372 µM and 390 µM. Also, the Papp in series [1] is 1.02 ×10⁻⁶ cm/s and 1.53 ×10⁻⁶ cm/s. In addition, the microsomal CLint in series [2] was 27 µL/min/mg and 42 µL/min/mg. The microsomal CLint in series [3] is 10 µL/min/mg and 30 µL/min/mg. For the same molecule, in series [4], the logD was 2.7 and 2.9.

As for `CC(C)[C@H](Nc1ncnc2[nH]c(-c3cnn(CC(N)=O)c3)cc12)c1ccc2c(c1)S(=O)(=O)CCC2` (racemic), the kinetic solubility was 341 µM (≈ 168 µg/mL). In series [1], this molecule showed a Papp of 0.32 ×10⁻⁶ cm/s. This molecule gave a microsomal CLint in series [2] of 116 µL/min/mg. Besides, in series [3], the microsomal CLint was 61 µL/min/mg. Also, the logD in series [4] was determined as 1.9.

As to `CC(C)[C@H](Nc1ncnc2[nH]c(-c3ccc4nnn(C)c4c3)cc12)c1ccc2c(c1)S(=O)(=O)CCC2` (racemic), the kinetic solubility amounted to 6 µM (≈ 3.01 µg/mL). In series [1], the Papp was 0.827 ×10⁻⁶ cm/s. In addition, the microsomal CLint in series [2] is 752 µL/min/mg. The microsomal CLint in series [3] turned out to be 219 µL/min/mg. This molecule also had a logD in series [4] of 3.4.

For `CC(C)[C@H](Nc1ncnc2[nH]c(-c3cnn(CCC(N)=O)c3)cc12)c1ccc2c(c1)OCCO2` (racemic), the solubility (kinetic) was 236 µM (≈ 109 µg/mL). Besides, in series [1], the apparent permeability coefficient (Papp) is 1.46 ×10⁻⁶ cm/s. The microsomal CLint in series [2] was determined as 99 µL/min/mg. The molecule also came in with a microsomal CLint in series [3] of 62 µL/min/mg. The logD in series [4] was 3.

In the case of `CC(C)[C@H](Nc1ncnc2[nH]c(-c3cnn(CC(N)=O)c3)cc12)c1ccc2c(c1)NC(=O)CO2` (racemic), the solubility (kinetic) is 25 µM (≈ 11.5 µg/mL). This molecule also came in with a Papp in series [1] of 1.36 ×10⁻⁶ cm/s. In series [2], this molecule displayed a microsomal CLint of 17 µL/min/mg. The same molecule had a microsomal CLint in series [3] of 11 µL/min/mg. The same molecule displayed a logD in series [4] of 2.5.

As for `CC(C)(C)[C@H](Nc1ncnc2[nH]c(-c3cnn(CC(N)=O)c3)cc12)c1ccc2c(c1)OCCO2` (single isomer, unassigned), the solubility (kinetic) is 89 µM and 104 µM. Also, in series [1], the Papp is 0.364 ×10⁻⁶ cm/s and 1.01 ×10⁻⁶ cm/s. For the same molecule, the microsomal CLint in series [2] is 153 µL/min/mg and 100 µL/min/mg. Also, the microsomal CLint in series [3] was 44 µL/min/mg and 39 µL/min/mg. Also, the logD in series [4] is 3 and 3.1.

Take `Cn1ncc(-c2cc3c(N[C@H](c4ccc5c(n4)OCCO5)C(C)(C)C)ncnc3[nH]2)c1C#N` (racemic): the solubility (kinetic) was found to be 24 µM (≈ 10.7 µg/mL). For the same molecule, in series [1], the Papp is 13.5 ×10⁻⁶ cm/s. The microsomal CLint in series [2] amounted to 81 µL/min/mg. Further, the microsomal CLint in series [3] turned out to be 209 µL/min/mg. Besides, in series [4], the logD is 2.7.

`O=C(Nc1ccc2c(c1)CNC2)c1cccc2[nH]c(C(F)(F)F)cc12`: the solubility (kinetic) came out at 372 µM (≈ 128 µg/mL). In series [1], this molecule came in with a Papp of 4.1 ×10⁻⁶ cm/s. The molecule also displayed a microsomal CLint in series [2] of 14.1 µL/min/mg. Moreover, the microsomal CLint in series [3] amounted to 12.7 µL/min/mg. The molecule further gave a logD in series [4] of 1.5.

As to `Cc1cc(CCCOc2c(C)cc(-c3noc(C(F)(F)F)n3)cc2C)on1`, the kinetic solubility was 18 µM (≈ 6.86 µg/mL). The molecule further had a Papp in series [1] of 1.42 ×10⁻⁶ cm/s. For the same molecule, in series [2], the microsomal CLint stood at 11.6 µL/min/mg. Also, the microsomal CLint in series [3] was determined as 21.5 µL/min/mg. Moreover, in series [4], the logD turned out to be 4.2.

Molecule `CC(C)[C@H](Nc1ncnc2[nH]ccc12)c1ccc2c(c1)S(=O)(=O)CCC2` (racemic) registered a kinetic solubility of 385 µM (≈ 143 µg/mL). This molecule also yielded a Papp in series [1] of 3.3 ×10⁻⁶ cm/s. Besides, the microsomal CLint in series [2] was 37 µL/min/mg. Also, in series [3], the microsomal CLint was found to be 138 µL/min/mg. This molecule also returned a logD in series [4] of 2.5.
